Source: US20130177627A1, “Growth inhibitory effects of nanoparticles containing triterpene glycosides or triterpenes” (priority 2011, published 2013)
In brackets after ≈: the same amount, converted by molar mass. Several values for one entry are separate records, joined by “and”; a condition that tells them apart may be missing. Identical values can stand only once. Entries after “also recorded” stand apart in the source; their conditions may differ. Like-named read-outs stand apart in the source and are kept apart here.

Tests used:
[1] = test system: HT29 human colon cancer cells; experiment: MTT growth inhibition assay on HT29 cells; type: cell-based
MDA-MB-453 cells = experiment: Calcium release, cells preloaded with Fura-2, MDA-MB-453; type: cell-based, human; details: MDA-MB-453, FIG. 7C
Experimental: (§1) Methods: To reveal signaling pathways, human breast and colon cancer, as well as 293T(NK-kB), cells were treated with actein, alone or combined with specific inhibitors. Effects were measured using the MTT, luciferase, promoter and Western blot assays and histology. To assess effects on calcium release, cells were preloaded with the calcium sensitive dye Fura-2. To enhance bioavailability, actein was conjugated to nanoparticle liposomes.
(§2) To elucidate the primary targets of actein, the effect of actein on calcium release was assessed. Cells were preloaded with the calcium sensitive dye Fura-2, which binds to calcium ions inside the cell. […] The effect was dose dependent in that it was stronger at 10 μM than at 10 nM in MCF7 breast cancer cells (FIG. 7A, B). […] The increase in calcium level was more sustained at the higher dose of actein (10 μM)) versus 10 nM and it continued longer for MDA-MB-453 than for MCF7 breast cancer cells (FIG. 7C).

[2] = test system: MDA-MB-453 human breast cancer cells; experiment: MTT growth inhibition assay and combination index on MDA-MB-453 cells
Experimental: MTT assay: the MTT (3-(4,5-dimethyl-2-thiazol)-2,5-diphenyl-2H tetrazolilum bromide) cell proliferation assay system (Roche Diagnostic, Mannheim, Germany) was used to determine the sensitivity of the various cell lines to agents. Cells were seeded at 1×10^4 cells/well in 96-well plates and allowed to attach for 24 h. The medium was replaced with fresh medium containing DMSO or compound. The cells were treated for 96 or 120 h, after which they were incubated with MTT reagents and the absorbance read at 650 and 575 nm.
The results of the MTT assay were analyzed for possible synergistic effects using the median effect principle.

[3] = test system: MDA-MB-453 breast cancer cells; experiment: Gene expression analysis in MDA-MB-453 cells; type: cell-based, human; details: actein 20 μg/ml
Experimental: Gene expression analysis was performed as previously described in vitro (Einbond et al., 2007)
AffyLimma analysis: To identify individual alterations in gene expression induced by treatment, an unbiased informatics analysis was performed using the AffyLimmaGUI package in the open-source Bioconductor suite, as previously described [Einbond et al., 2007.]

MCF7 cells = experiment: Calcium release, cells preloaded with Fura-2, MCF7; type: cell-based, human
Experimental: as §1, §2

[4] = test system: NFκB transcription factor; experiment: NF-kB luciferase assay in 293T cells; type: cell-based; details: 293T(NF-κB) cells
Experimental: A luciferase reporter construct is integrated in 293T cells and is regulated by 6 copies of the NFκB response element. The assay to monitor the activity of NFκB transcription factor was performed as described in the manufacturer's instructions (Panomics, Freemont, Calif.).

HT29 cells = experiment: Calcium release, cells preloaded with Fura-2, HT29; type: cell-based, human
Experimental: as §1, §2

[5] = test system: breast cancer cell growth; details: Einbond et al., 2008; cited from earlier work
293T(null) cells = experiment: MTT growth inhibition assay on 293T(null) cells; type: cell-based; details: Homo sapiens, HEK-293T, 96 h MTT, FIG. 10B
rat liver [6] = details: cited from earlier work
IKKβ protein = experiment: Western blot analysis of IKKβ; type: cell-based; details: 3 h, FIG. 10C
Experimental: Cells were treated for increasing times, in media containing serum, with approximately the IC50 and twice the IC50 concentration, measured at 48 h, of actein. Western blot analysis was performed as previously described (Einbond et al., 2004). The membrane was incubated with the primary antibody IKKβ (Santa Cruz Biotechnology; Santa Cruz, Calif.); β-actin was used as a loading control.

Na+/K+-ATPase = details: Einbond et al., 2008, cited from earlier work
rat liver [7] = experiment: Gene expression in rat liver after actein; type: in vivo; details: gene expression analysis
[8] = test system: 293T(NF-κB) stably transformed cells; experiment: MTT growth inhibition assay on 293T(NF-κB) cells; type: cell-based; details: Homo sapiens, HEK-293T, 96 h MTT, FIG. 10B
[9] = test system: NF-kB promoter activity, p-Erk, p-Akt, cyclin D1; details: later times (24 h), Einbond et al., 2008; cited from earlier work
[10] = test system: MCF7 human breast cancer cells; experiment: MTT growth inhibition assay on MCF7 cells; type: cell-based
[11] = Homo sapiens, MDA-MB-453, read-out: IC50, agent alone

heparin [reference compound]
effect of heparin on the growth inhibitory effects of actein ([1]; HT29 colon cancer cells): partially blocked
effect of heparin on actein-induced calcium release (MDA-MB-453 cells): completely blocked

C/C=C(/C)C(=O)O[C@H]1C(C)=C2[C@H]([C@@H]1OC(=O)CCCCCCC)[C@@](C)(OC(C)=O)C[C@H](OC(=O)CCC)[C@@]1(O)[C@H]2OC(=O)[C@@]1(C)O [thapsigargin, reference compound]
IC50 [2, 11]: 0.018 µg/mL
viability at 0.01 µg/mL ([2]; Homo sapiens, MDA-MB-453, read-out: percent viable cells): 76.3%

CC(=O)O[C@@H]1C[C@@]23C[C@@]24CC[C@H](O[C@@H]2OC[C@@H](O)[C@H](O)[C@H]2O)C(C)(C)[C@@H]4CC[C@H]3[C@]2(C)C[C@@H]3O[C@]4(C[C@@H](C)[C@@H]3[C@@]12C)O[C@H](O)[C@@]1(C)O[C@@H]41 [actein]
expression of the inflammatory pathway, cytokine-cytokine interaction ([3]; 6 h, up EPOR, down CXCR4, TRAF5, IL17RB): significantly modulated
expression of the MAPK signaling pathway ([3]; gene (up) HSPA1A): significantly altered
calcium release (action potential, Fura-2) (MCF7 cells; MCF7, actein 10 nM and 10 μM, FIG. 7A, B): induced an increase in action potential indicating calcium release
intracellular calcium (ion concentration) levels (MCF7 cells; MCF7, actein 100 nM or 100 μM, FIG. 4): significantly increases intracellular calcium
time course of the calcium effect (MCF7 cells; MCF7 breast cancer cells): immediate and transient
effect on 293T cells stably transformed with the NF-κB plasmid (FIG. 10A NF-kB activity) [4]: did not increase cell proliferation
calcium release (action potential, Fura-2) (HT29 cells): induced an increase in action potential indicating calcium release
combination with digitoxin on breast cancer cell growth [5]: synergized with digitoxin
IC50 (293T(null) cells): 75 µg/mL (≈ 111 µM)
genes erythropoietin, CYP2C and ATP synthase in rat liver (rat liver [6]; actein 35.7 mg/kg for 6 h, rat liver (Einbond et al., 2009)): downregulated
responses elicited in rat liver in vivo (rat liver [6]; rat liver): elicited stress and statin-associated responses
IC50 ([2]; Homo sapiens, MDA-MB-453, 96 h, read-out: IC50, concentration that caused 50% inhibition of cell growth): ~8 µg/mL and ~12 µM
IC50 [2, 11]: 25 µg/mL
IC50 ([2]; Homo sapiens, MDA-MB-453, read-out: IC50, growth inhibition): 23 µg/mL
ability of actein to potentiate the effects of thapsigargin ([2]; MDA-MB-453, FIG. 8A, B): enhanced the effects of thapsigargin
level of IKKβ protein (IKKβ protein): decreased the level of IKKβ protein in a dose dependent manner
activity of the purified Na-K ATPase (Na+/K+-ATPase; 2007): inhibits the activity of the purified Na+/K+-ATPase; also recorded: inhibited the activity of the purified Na-K ATPase
combination with digitoxin on Na/K ATPase activity (Na+/K+-ATPase): synergized with digitoxin
IC50 ([1]; Homo sapiens, HT-29, 96 h, read-out: IC50, concentration that caused 50% inhibition of cell growth): ~24 µg/mL and ~35 µM
viability at 10 µg/mL ([1]; Homo sapiens, HT-29, HT29, actein 10 μg/ml alone or plus U0126 10 μM, read-out: percent viable cells): 79.1%
IC50 ([1]; Homo sapiens, HT-29, HT29, actein alone or combined with MEK inhibitor U0126, FIG. 6C, read-out: IC50, growth inhibition): 30 µg/mL
expression of the inflammatory gene CXCR4 in rat liver tissue (rat liver [7]): reduced the expression
IC50 [8]: 38 µg/mL (≈ 56.1 µM)
calcium release (action potential, Fura-2) (MDA-MB-453 cells): induced an increase in action potential indicating calcium release
level of NF-kB promoter activity, p-Erk, p-Akt and cyclin D1 protein [9]: reduced
IC50 ([10]; MCF7, 96 h, read-out: IC50, concentration that caused 50% inhibition of cell growth): ~30 µM
viability at 5 µg/mL ([10]; MCF7, actein 5 μg/ml alone or plus U0126 10 μM, read-out: percent viable cells): 79.2%
IC50 ([10]; MCF7, actein alone or combined with MEK inhibitor U0126, FIG. 6B, read-out: IC50, growth inhibition): 20 µg/mL
